Assay results as given in ChEMBL document CHEMBL5442168, “ASAP - In vitro liver microsomal stability” (2024).
Values joined by “and” are separate entries in the source; they are usually repeats but may differ in a detail not shown here. Equal values may be shown once.

Experiments:
[1] = (§1) Human liver microsomal stability of compound in microsomal protein, PBS buffer pH 7.4, NADPH, glucose-6-phosphate and glucose-6-phosphate dehydrogenase media. Aliquotes were taken at 5 time points and after stopping the reaction, supernatants were analyzed using HPLC coupled with a tandem mass spectrometer. The elimination constant, half-life, and intrinsic clearance are determined as results using linear regression analysis. The assay has been performed by Enamine biological services, Bienta Ltd.The protocol is publicly available: dx.doi.org/10.17504/protocols.io.5qpvokdb9l4o/v1; format: ADME, microsomes, Microsome; conditions: for half-life / microsomal CLint: liver microsomes; for Remaining / Remaining (without cofactor) / CLint / T1/2: microsomes
[2] = as §1, with “Mouse” for “Human”; format: ADME, microsomes, Microsome; conditions: for half-life / microsomal CLint: liver microsomes; for Remaining / Remaining (without cofactor) / CLint / T1/2: microsomes
Wherever Remaining (without cofactor) is given: time not given here.
Wherever Remaining is given: time not given here.

Compound | half-life [1] | microsomal CLint [1] | Remaining [1] | Remaining (without cofactor) [1] | half-life [2] | microsomal CLint [2] | Remaining [2] | Remaining (without cofactor) [2] | CLint [1] | T1/2 [1] | CLint [2] | T1/2 [2]
CC(C)[C@H](CO)Nc1ncnc2[nH]ccc12 | 289 min | 6 µL/min/mg | 119% | 99% | 171 min | 10 µL/min/mg | 90% | 93% | – | – | – | –
COc1ccc([C@@H](NC(=O)c2[nH]cnc3nccc2-3)C(C)c2nnn[nH]2)cc1 (stereo partly specified) | 799 min | 2 µL/min/mg | 92% | 103% | 2880 min | 1 µL/min/mg | 99% | 92% | – | – | – | –
CC(C)[C@@H](Nc1ncnc2[nH]ccc12)c1ccc2c(c1)S(=O)(=O)CCC2 | 44.7 min | 37 µL/min/mg | 53% and 69% | 99% | – | – | – | 103% and 117% | 21 µL/min/mg | 78.6 min | 138 µL/min/mg and 55 µL/min/mg | 12.1 min and 30.4 min
CC(C)[C@H](Nc1ncnc2[nH]c(-c3cnn(C)c3C#N)cc12)c1ccc2c(c1)NC(=O)CO2 | 14.6 min | 115 µL/min/mg | 16% | 101% | 20.7 min | 81 µL/min/mg | 27% | 96% | – | – | – | –
CC(C)[C@@H](Nc1ncnc2[nH]c(-c3cncc(S(C)(=O)=O)c3)cc12)c1ccc2c(c1)S(=O)(=O)CCC2 | 2.6 min | 635 µL/min/mg | 1% | 104% | 6.1 min | 272 µL/min/mg | 1% | 112% | – | – | – | –
CC(C)[C@@H](Nc1ncnc2[nH]c(-c3cnn(C)c3C#N)cc12)c1ccc2c(n1)OCCO2 | – | – | – | 104% and 98% and 93% | – | – | 6% and 10% and 1% | 110% and 101% and 99% | – | – | 169 µL/min/mg and 139 µL/min/mg and 371 µL/min/mg | 9.9 min and 12 min and 4.5 min
CC(C)[C@@H](Nc1ncnc2[nH]c(-c3cnn(CC(N)=O)c3)cc12)c1ccc2c(c1)OCCO2 | – | – | – | 103% and 90% | 41.1 min | 41 µL/min/mg | 54% and 49% | 87% and 98% | 99 µL/min/mg and 238 µL/min/mg | 16.9 min and 7 min | 42 µL/min/mg | 40 min
CC(C)[C@@H](Nc1ncnc2[nH]c(-c3ccc4cncn4c3)cc12)c1ccc2c(c1)S(=O)(=O)CCC2 | 8 min | 210 µL/min/mg | 4% | 97% | 9.8 min | 170 µL/min/mg | 6% | 87% | – | – | – | –
CC(C)[C@H](Nc1ncnc2[nH]c(-c3cnn(C)c3C#N)cc12)c1ccc2c(n1)OCCO2 | 100 min | 17 µL/min/mg | 78% | 116% | 20.7 min | 81 µL/min/mg | 27% | 96% | – | – | – | –
COc1ccc([C@@H](CC(=O)O)NC(=O)c2ncnc3[nH]ccc23)cc1 | 240 min | 7 µL/min/mg | 87% | 88% | 686 min | 2 µL/min/mg | 94% | 96% | – | – | – | –
CNC(=O)c1cccc(-c2cc3c(N[C@@H](c4ccc5c(c4)S(=O)(=O)CCC5)C(C)C)ncnc3[nH]2)c1 | 3.7 min | 455 µL/min/mg | 0% | 93% | 1.9 min | 882 µL/min/mg | 1% | 101% | – | – | – | –
CNC(=O)c1c[nH]c2ncnc(N[C@H](c3ccc4c(c3)S(=O)(=O)CCC4)C(C)C)c12 | 6.5 min | 258 µL/min/mg | 1% | 94% | 2.2 min | 770 µL/min/mg | 0% | 99% | – | – | – | –
CNC(=O)c1cccc(-c2cc3c(N[C@H](c4ccc5c(c4)S(=O)(=O)CCC5)C(C)C)ncnc3[nH]2)c1 | 2.2 min | 746 µL/min/mg | 0% | 99% | 8.5 min | 197 µL/min/mg | 4% | 106% | – | – | – | –
CC(C)[C@H](Nc1ncnc2[nH]c(C(=O)N[C@H]3CCN(C)C3)cc12)c1ccc2c(c1)S(=O)(=O)CCC2 | 150 min | 11 µL/min/mg | 80% | 98% | 1540 min | 1 µL/min/mg | 98% | 97% | – | – | – | –
CC(C)[C@@H](Nc1ncnc2[nH]cc(C(N)=O)c12)c1ccc2c(c1)OCCO2 | 11.7 min | 143 µL/min/mg | 9% | 110% | 11.7 min | 142 µL/min/mg | 9% | 98% | – | – | – | –
CC(C)[C@H](Nc1ncnc2[nH]ccc12)c1ccc2c(c1)S(=O)(=O)CCC2 | 29.5 min | 57 µL/min/mg | 37% | 92% | 8.1 min | 207 µL/min/mg | 3% | 104% | – | – | – | –
Cn1ncc(-c2cc3c(N[C@@H](c4ccc5c(n4)OCCO5)C(C)(C)C)ncnc3[nH]2)c1C#N | – | – | – | 91% and 108% and 85% | 8 min | 209 µL/min/mg | 4% and 5% and 2% | 101% and 106% and 94% | – | – | 188 µL/min/mg and 226 µL/min/mg | 8.9 min and 7.4 min
CNC(=O)c1c[nH]c2ncnc(N[C@@H](c3ccc4c(c3)NC(=O)CO4)C(C)C)c12 | 19.5 min | 86 µL/min/mg | 23% | 98% | 14.8 min | 113 µL/min/mg | 16% | 95% | – | – | – | –
CNCc1cc(-c2cc3c(N[C@H](c4ccc5c(c4)S(=O)(=O)CCC5)C(C)C)ncnc3[nH]2)co1 | 25.1 min | 67 µL/min/mg | 33% | 98% | 41.8 min | 40 µL/min/mg | 51% | 96% | – | – | – | –
CC(C)[C@@H](Nc1ncnc2[nH]c(-c3cnn(CC(N)=O)c3)cc12)c1ccc2c(c1)NC(=O)CO2 | 99.2 min | 17 µL/min/mg | 73% | 91% | 156 min | 11 µL/min/mg | 84% | 102% | – | – | – | –
COc1ccc2c(c1)CCN(c1ncnc3[nH]ccc13)[C@H]2C(C)C | 27.8 min | 60 µL/min/mg | 38% | 103% | 5.2 min | 321 µL/min/mg | 1% | 83% | – | – | – | –
